What all share (type): physicochemical
The nature of data set [1]: Particle size distribution by Malvern, conditioning studies untreated versus treated. On the procedure:
Fluticasone propionate was conditioned in a drug-addition vessel. A 5% concentration of fluticasone propionate in HFA134a was treated at 40° C. for 48-72 h with a gentle rocking motion. HFA134a was vented and the remaining material was assessed in regard to its amorphous content.

The nature of data set [2]: Amorphous content after conditioning in HFA134a. On the procedure: Heating is performed at a temperature of 30-50° C., more preferably at a temperature of 35-45° C., and most preferably at a temperature of 38-42° C. The heating step, in the presence of the propellant, is a conditioning step for the API, in order to reduce the amorphous content of the API, without affecting the PSD. Amorphous content may be determined by solution microcalorimetry. Fluticasone propionate was conditioned in a drug-addition vessel. A 5% concentration of fluticasone propionate in HFA134a was treated at 40° C. for 48-72 h with a gentle rocking motion. HFA134a was vented and the remaining material was assessed in regard to its amorphous content.

The nature of data set [3]: Scanning electron microscope images pre- and post-conditioning. The conditions noted are these: post-conditioning versus pre-conditioning, Experiments 1 and 2. The text has this: FIGS. 1 and 2 show scanning electron microscope images of fluticasone propionate, pre-conditioning (the first image in each Figure) and post-conditioning (the second image in each Figure). FIGS. 1 and 2 are taken from Experiments 1 and 2 in Table 1 and show scanning electron microscopic images of fluticasone propionate, pre-conditioning (the first image in each Figure) and post-conditioning (the second image in each Figure).

The nature of data set [4]: Particle size distribution by Malvern, conditioning studies untreated versus treated. The source holds these as a separate data set.
The mark [5] stands for this setting: Experiment 1, 5% in HFA134a, 40° C. for 48-72 h (with agitation).
Where [6] appears, read: Experiment 1, 5% in HFA134a, 40° C. for 72 h (with agitation).
[7] abbreviates: Experiment 2, 5% in HFA134a, 40° C. for 48-72 h (with agitation).
Where [8] appears, read: Experiment 1, Control (untreated).
Setting [9] is: Experiment 2, Control (untreated).

With `CCC(=O)O[C@]1(C(=O)SCF)[C@H](C)C[C@H]2[C@@H]3C[C@H](F)C4=CC(=O)C=C[C@]4(C)[C@@]3(F)[C@@H](O)C[C@@]21C` [fluticasone propionate], the “Particle size distribution by Malvern D10” value came to 0.6 μm in data set [1] (setting [5]); 0.6 μm in data set [1] (setting [6]); 0.7 μm in data set [1] (setting [7]); 0.6 μm in data set [4] (setting [8]); 0.6 μm in data set [4] (setting [9]). The “Particle size distribution by Malvern D90” value worked out at 3.2 μm in data set [1] (setting [5]); 2.9 μm in data set [1] (setting [6]); 3.2 μm in data set [4] (setting [8]); 4.7 μm in data set [4] (setting [7]); 5.0 μm in data set [4] (setting [9]). Moreover, the “Particle size distribution by Malvern D50” value in data set [1] (setting [7]) is on record as 2.0 μm; in data set [4] (setting [5]) it was 1.5 μm; in data set [4] (setting [6]), 1.4 μm; in data set [4] (setting [8]), 1.5 μm; in data set [4] (setting [9]), 1.7 μm. The Amorphous content amounted to 2.3% in data set [2] (setting [5]); 1.1% in data set [2] (setting [6]); 7.2% in data set [2] (setting [8]); 1.1% in data set [2] (setting [7]); 2.3% in data set [2] (setting [9]). For the same molecule, the “Crystallinity by SEM images” value in data set [3] is listed as “increased crystallinity”.

For the origin of these results see patent publication US10653704B2, “Inhalable formulation” (Teva Branded Pharmaceutical Products R&D, Inc., priority 2014, dated 2020).
